Earlier results in US20240141060A1, “DOSAGE REGIMES FOR ANTI-CD73 AND ANTI-ENTPD2 ANTIBODIES AND USES THEREOF” (NOVARTIS AG, priority 2021, published 2024).

Conditions: patients; cited from earlier work

## Nc1nc(-n2cccn2)nc(-n2cccn2)c1Br [NIR178, 5-bromo-2,6-di-(1H-pyrazol-1-yl)pyrimidine-4-amine, reference compound]
  MTD: 480 mg BID
